From patent US10471054B2, “CDK1 inhibitors of acetyl chrysin mannich base derivatives, synthesis and use thereof” (priority 2016, dated 2019)

Experiments:
Dissolution in pH media = assay type: physicochemical; conditions: 37° C.
Method: (§1) CH-j is pKa 5.3, log P 1.63 in Octanol/Water at 37° C. […] (BA-j 77m/ml). CH-j belongs to BCS II (low solubility, high permeability) and solubility presents the pH dependence. […] CH-j is a pH dependent fast release. […] It is speculated that CH-j has more appropriate log P and solubility with more likely entering tissue cells than others solubility acetyl Chrysin Mannich base derivatives.

caspase-3, 8, 9 = assay: Caspase activity in BGC-823; assay type: cell-based; conditions: range of 0-10 μM, 24 h
Description: Caspase is a series of cysteinyl aspartate specific proteinase in the cytoplasm of protease with closely related to cell apoptosis, and participate in cell growth, differentiation and apoptosis regulation. Caspase is same key enzymes in apoptosis process and in the apoptosis of the mediated cells, there are almost all apoptotic signaling pathways involved in the pathway of caspase. […] Caspase-8 is an early starter for the induction of apoptosis, and the caspase-3 is the late executor. Pro-caspase-9 is dissociation with phosphorylation surviving, and inhibiting cell apoptosis and promoting division. Pro-caspase-9 by H2O2 is oxidized into caspase-9-S—S-caspase-9 with inhibiting cell division and inducing apoptosis. H2O2 can directly oxidize and activate caspase, hydrolyze antiapoptotic protein Bcl-2 and Bcl-xl substrate, so selectively induce apoptosis of cancer cells and reduce the damage of normal cells.
FIG. 3-4: caspases: X-coordinate is CH-j concentration (μM) and Y-coordinate the activity of caspase (%) for BGC-823.

MCF-7 and COS-7 = assay: .OH level, CCy-OH fluorescent probe imaging; assay type: cell-based; conditions: 12.5 μM for 5 h
BGC-823 [1] = assay: Annexin V-FITC-PI double fluorescence, apoptosis and necrosis; assay type: cell-based; conditions: 24 h
Description: There is a series of morphological characteristic changes in the apoptosis of cells, in which the change of the plasma membrane is one of the characteristics of early apoptosis. The cytoplasm is flipped from the inside of the cytoplasm to the outer surface of the cell when the cell apoptosis, Annexin V is a Ca^++ dependent phospholipid binding protein, which has a high affinity with phospholipid-peptide-serine, which can be combined with the phospholipid peptide specificity that is exposed to the extracellular cells. However, cytoplasm transfer to cell membrane is not unique to apoptosis, but also can occur in cell necrosis. The difference between the two cell death modes is that the cell membrane is intact in the initial stage of apoptosis, and the integrity of the cell membrane in its early stage is destroyed. PI is a nucleic acid dye that cannot pass through the intact cell membrane, but in the cell and necrotic cells in the middle and late stage of apoptosis, the PI can dye the nucleus through the cell membrane. Annexin V-FITC-PI was used to detect apoptosis and necrotic cell ratio on flow cytometry.
A relatively small increase in apoptotic cells is increased.
FIG. 3-3 Annexin V-FITC/PI staining results for BGC-823.

log P in Octanol/Water = assay type: physicochemical; conditions: Octanol/Water at 37° C.
Method: The solubility and log P of acetyl ChrysinMannich base derivatives see TABLE 1.
as §1
(about 20 times BA-f 277 μg/ml) and 564 μg/ml in water at 37° C. (about 1000 times BA-f 0.53m/ml). CH-f is BCS I (high solubility and permeability) and solubility presents the pH dependence. It is speculated that CH-f has more appropriate log P and solubility with entering systemic (blood system and tissue cells) than others solubility acetyl Chrysin Mannich base derivatives.

BGC-823 [2] = assay: Anti-cancer cells proliferation activity (MTT, 48 h); assay type: cell-based; conditions: Homo sapiens, BGC-823, MTT
Method: (§2) Anti-cancer cells proliferationactivity of in vitro CH-j and CH-f were shown in TABLE 2 for the results of the screening of 5 cancers cells.
FIG. 2: The initial screening results of the anticancer activity of BGC-823 (MTT, for 48 h), and X-coordinate is the drug concentration (MTT, for 48 h), and Y-coordinate the cell survival rate (%) in vitro.

H-460 xenograft = H-460 xenograft in BALB/c nude mouse; assay type: in vivo; conditions: compared with before
Method: The anti-tumor effect of the BALB/c nude mouse model of the non-small cell lung cancer (H-460) was determined by the method [Scientific Reports, 2015, 5: 13626], and the results were shown in FIG. 7. 5 or 10 mg/kg of CH-j, for twice daily 10 days were compared with the control group.
FIG. 7: H-460 carcinoma in male BALB/c nude mice xenograft model, two times a day to fill the stomach to CH-j 5 and 10 mg/kg, for 10 days in a row, X-coordinate is experimental time (days), and Y-coordinate vertical volume of H-460 carcinoma (mm^3).

BGC-823 and Hep G2 = assay: H2O2 level in cancer cells, PF1-H2O2 fluorescent probe; assay type: cell-based; conditions: BGC-823 and Hep G2, CH-j 5-10 μM
Method: The cells are cancer cells (MCF-7, GBC-823, Hep G2) and normal cells (Liver, COS-7, PBMCs). According to the literature [Scientific Reports, 2015, 5: 13626; Anti-cancer Agents in Medicinal Chemistry, 2016, 16: 914-924.], in vitro cultured cells was given to CH-j 25 μM for 3.5 h, added PF1-H2O2 selective fluorescence probe 10 μM for 0.5 h and detected the concentration of H2O2 in cells, and performed fluorescence imaging by results shown in FIG. 1.
FIG. 1-2: The effect of CH-j/BA-j to Hep G2 and BGC-382 in the levels of H2O2: in which the X-coordinate is the concentration of CH-j/BA-j concentration (μM), and Y-coordinate is the intracellular levels of H2O2 (μM) for 4 h with PF1-H2O2 10 μM by Fluorescence Microplater Reader (488 nm/525 nm).

BGC-823 [3] = assay: PI staining flow cytometry, cell cycle; assay type: cell-based; conditions: 24 h
Description: PI specificity is combined with DNA, and the fluorescence intensity is in a good linear relationship with the combination of PI. After cell fixation, PI staining was used for quantitative analysis of DNA content in cells by flow cytometry. Since the amount of DNA in different cell cycles varies, it can be determined that the drug actions on the cell cycle. In cell apoptosis, there are many characteristic changes in the cell and molecular level, and the most characteristic of the change of nucleus is the change of nucleus. Due to activate apoptosis cells, DNA degradation, reduce the cell DNA, and therefore can be in the GO/G1 peak appeared before a diploid apoptosis peak (sub-G1), […] pyrolysis peak integer times of DNA, no less than […] pyrolysis peak.
In addition, high concentrations of drugs can also reduce the proportion of S stage cells.
FIG. 3-2 PI staining results for BGC-823.

H-460 = assay: Anti-cancer cells proliferation activity (MTT, 48 h); assay type: cell-based; conditions: Homo sapiens, NCI-H460, H-460, MTT
Description: as §2

## CC(=O)c1c(O)c(CN2CCC(O)CC2)c2oc(-c3ccccc3)cc(=O)c2c1O [CH-j, 6-Acetyl-5,7-dihydroxy-8-(4-hydroxy-piperidin-1-ylmethyl)-2-phenyl-chromen-4-one]
Dissolution in pH media; 0.05M NaAC-HAC buffered solution (pH4.5)
  Dissolution: 90%
Dissolution in pH media; 0.1M HCl (pH1.2)
  Dissolution: 62%
Dissolution in pH media; PBS (pH6.8)
  Dissolution: < 1.0%
Dissolution in pH media; water
  Dissolution: < 0.1%
caspase-3, 8, 9
  Activation of caspase-3, 8, 9: activated caspase-3, 8, 9 both in a dose-dependent upward trend
MCF-7 and COS-7
  Level of .OH, red fluorescence: present red fluorescence in MCF-7 and no in COS-7
BGC-823 [1]
  Apoptosis and necrosis by Annexin V-FITC-PI: induce apoptosis the BGC-823 with obvious dose-dependent manner
Log P in Octanol/Water
  log P: 1.64
Log P in Octanol/Water; octanol/water
  logP: 1.63
BGC-823 [2]
  IC50: 6.3 ± 1.13 µM
H-460 xenograft; 5 mg/kg twice daily 10 days
  Reduction rate of H-460 tumor: 90.5%±9.2%
H-460 xenograft; 10 mg/kg twice daily 10 days
  Reduction rate of H-460 tumor: 95.2%±11.6%
BGC-823 and Hep G2
  Amount of H2O2 released, fold: about 4 times
BGC-823 and Hep G2; 4 h
  Maximum level of H2O2 in cells: 35 to 45 µM
BGC-823 [3]
  Cell cycle effect by PI staining: block the BGC-823 in G1, G2 phase
H-460
  IC50: 6.5 ± 1.13 µM
